Assay results taken from US20260021147A1, “COMPOSITIONS AND METHODS FOR TREATING INFLAMMATORY DISEASE” (The Regents of the University of Michigan, priority 2022, published 2026).
“Also recorded” adds a separate entry of the source.

What was measured:
[1] = Short chain fatty acids profiling of mouse feces by IC-MS; assay type: in vivo, mice; settings: meropenem-treated allo-HSCT mice, day 18
Procedure: To determine the relative abundance of short chain fatty acids in mouse feces samples, extracts were prepared and analyzed by ultra-high resolution mass spectrometry (HRMS). Fecal pellets were homogenized with a Precellys Tissue Homogenizer. Metabolites were extracted using 1 mL ice-cold 0.1% Ammonium hydroxide in 80/20 (v/v) methanol/water. Extracts were centrifuged at 17,000 g for 5 min at 4° C., and supernatants were transferred to clean tubes, followed by evaporation to dryness under nitrogen. Dried extracts were reconstituted in deionized water, and 5 μL was injected for analysis by IC-MS. IC mobile phase A (MPA; weak) was water, and mobile phase B (MPB; strong) was water containing 100 mM KOH. A Thermo Scientific Dionex ICS-5000+ system included a Thermo IonPac AS11 column (4 μm particle size, 250×2 mm) with column compartment kept at 30° C. The autosampler tray was chilled to 4° C. The mobile phase flow rate was 360 μL/min, and the gradient elution program was: 0-5 min, 1% MPB; 5-25 min, 1-35% MPB; 25-39 min, 35-99% MPB; 39-49 min, 99% MPB; 49-50, 99-1% MPB. The total run time was 50 min. To assist the desolvation for better sensitivity, methanol was delivered by an external pump and combined with the eluent via a low dead volume mixing tee. Data were acquired using a Thermo Orbitrap Fusion Tribrid Mass Spectrometer under ESI negative ionization mode at a resolution of 240,000. […]

colonic mucus layer = experiment: Colonic mucus thickness by PAS staining; assay type: in vivo, mice; settings: allogeneic mice, day 18
Description: (§1) Pathology scores were quantified by a blinded pathologist. […] Sections were imaged using an Aperio AT2.

allo-HSCT patients = experiment: Retrospective study of 295 allo-HSCT patients: acute GvHD by antibiotic exposure; assay type: in vivo, human; settings: until day 100; antibiotic exposure days −10 to 30
Procedure: 295 patients with acute myeloid leukemia (AML) or myelodysplastic syndrome (MDS) underwent allogeneic hematopoietic stem cell transplantation (allo-HSCT) with fludarabine plus busulfan as conditioning therapy and tacrolimus and methotrexate as GvHD prophylaxis from 2011 and 2016 at MD Anderson Cancer Center and were analyzed retrospectively. Patients were classified by antibiotic exposures, including those who received neither cefepime nor meropenem, those who received cefepime alone, those who received meropenem alone and those who received both cefepime and meropenem from day −10 to day after allo-HSCT. Acute GvHD was diagnosed by clinical and/or pathological findings, and graded according to standard criteria (Przepiorka et al., 1995).

[2] = system: allogeneic mice (B6D2F1 recipients of B6 donor cells); experiment: Murine GvHD model (allo-HSCT): survival and GvHD histology; assay type: in vivo
Procedure: (§2) In a murine model with a mucin-deficient mutate strain of BT, piperacillin/tazobactam was given at a concentration of 3.2 g/L in combination with vancomycin and metronidazole dosed 1.5 mg daily by oral gavage from days −16 to −12 relative to transplant.
D-(+)-xylose (X3877, Sigma-Aldrich) or D-(+)-glucose (G8270, Sigma-Aldrich) was dissolved in phosphate buffer pH 8.0 with meropenem or in water without meropenem and given at a concentration of 0.5% from days 13 to 28 after allo-HSCT.
Mice were transplanted as previously described (Hayase et al., 2017).
as §1

[3] = Meropenem concentration in stool during drinking water administration; assay type: in vivo; settings: 48 hours after starting meropenem treatment, normal SPF mice
Procedure: as §2
To further explore the relationship between meropenem and intestinal GvHD, the effects of meropenem on GvHD was examined in a mouse model of allo-HSCT. A method of administering meropenem to mice that mimicked the effects of meropenem on the intestinal microbiome of patients was developed. Meropenem concentrations in the cecal lumen of mice were quantified 4, 8, 24, 48 and 96 hours after subcutaneous injection. […] Drinking water was then evaluated as a means of continuously administering meropenem to mice, using bacterial density quantified by 16S ribosomal RNA (16S rRNA) gene quantitative PCR (qPCR) to gauge reductions of the intestinal microbiota.

MLNs = experiment: Microbiologic analysis of bacterial translocation to mesenteric lymph nodes; assay type: in vivo; settings: allogeneic mice, day 18
Procedure: Mesenteric lymph nodes (MLNs) were harvested from mice and homogenized in PBS and cultured anaerobically on BHI plates containing yeast extract and 5% sterilized rumen fluid (Fisher Scientific) and Columbia blood agar plates (BD) for 4 days at 37° C. Colony-forming units (CFUs) were counted and adjusted per organ. Bacteria were identified by MALDI Biotyper.

For `C[C@@H](O)[C@H]1C(=O)N2C(C(=O)O)=C(S[C@@H]3CN[C@H](C(=O)N(C)C)C3)[C@H](C)[C@H]12` [meropenem], the “fecal levels of SCFAs” value [1] was “reduced fecal levels of SCFAs”, the colonic mucus layer (colonic mucus layer) was “significantly thinned colonic mucus layer; also recorded: thinning of the colonic mucus layer” and the “incidence of acute intestinal GvHD” value (allo-HSCT patients) was “increased”. The “GvHD histological scores in the colon” value ([2]; meropenem days 3 to 15, day 18, vs control allogeneic mice) was “significantly higher GvHD histological scores in the colon”, the overall survival ([2]; meropenem in drinking water days 3 to 15, vs control allogeneic mice) was “significantly worsened survival” and the “meropenem concentration in stool” value [3] was 0.11 ± 0.07 µg/g. The “bacterial loads in MLNs” value (MLNs) was “Higher bacterial loads”.
